Reference: the supplement of paper PMC10307832

How the values were obtained:
Assay in all cases: relative viability (nuclei count vs DMSO), 5 days (fraction); higher = more cells survive
[1] = compound: CCCS(=O)(=O)Nc1ccc(F)c(C(=O)c2c[nH]c3ncc(-c4ccc(Cl)cc4)cc23)c1F [Vemurafenib] + CC1(C)CCC(c2ccc(Cl)cc2)=C(CN2CCN(c3ccc(C(=O)NS(=O)(=O)c4ccc(N[C@H](CCN5CCOCC5)CSc5ccccc5)c(S(=O)(=O)C(F)(F)F)c4)cc3)CC2)C1 [Navitoclax] (partner 0.5 µM)
Method in brief: (§1)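 Five library-drug doses in √10 steps were combined with a fixed anchor-drug dose, or a single drug was given alone, by pin tool to lung cancer cell lines in 1536-well plates the day after seeding. Nuclei were stained and counted after 5 days. Relative viability is the nuclei count in treated wells over that in vehicle wells, taken as the median of duplicate plates.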

[2] = compound: COc1cccc2cc(-c3nc([C@H]4CC[C@H](C(=O)O)CC4)n4ncnc(N)c34)[nH]c12 [OSI-027] + C[C@]1(O)C[C@@H](c2nc(-c3ccc4ccc(-c5ccccc5)nc4c3)c3c(N)nccn32)C1 [Linsitinib] (partner 1 µM)
Method in brief: as §1

[3] = compound: CCCS(=O)(=O)Nc1ccc(F)c(C(=O)c2c[nH]c3ncc(-c4ccc(Cl)cc4)cc23)c1F [Vemurafenib] + Nc1ncn([C@H]2C[C@H](O)[C@@H](CO)O2)c(=O)n1 [Decitabine] (partner 2 µM)
Method in brief: as §1

[4] = compound: CCCS(=O)(=O)Nc1ccc(F)c(C(=O)c2c[nH]c3ncc(-c4ccc(Cl)cc4)cc23)c1F [Vemurafenib] + Cc1cc(Nc2cc(N3CCN(C)CC3)nc(Sc3ccc(NC(=O)C4CC4)cc3)n2)n[nH]1 [Tozasertib] (partner 0.1 µM)
Method in brief: as §1

## NCI-H1299
[1]; first compound 0.03162 µM
  relative viability: 1.03
[1]; first compound 0.1 µM
  relative viability: 1.03
[1]; first compound 0.3162 µM
  relative viability: 0.976
[1]; first compound 1 µM
  relative viability: 1.03
[2]; first compound 0.01 µM
  relative viability: 0.969
[2]; first compound 0.03162 µM
  relative viability: 0.94
[2]; first compound 0.1 µM
  relative viability: 0.889
[2]; first compound 0.3162 µM
  relative viability: 0.773
[2]; first compound 1 µM
  relative viability: 0.635

## LK-2
[3]; first compound 0.03162 µM
  relative viability: 0.243
[3]; first compound 0.1 µM
  relative viability: 0.342
[3]; first compound 0.3162 µM
  relative viability: 0.321
[3]; first compound 1 µM
  relative viability: 0.254
[1]; first compound 0.03162 µM
  relative viability: 0.736
[1]; first compound 0.1 µM
  relative viability: 0.963
[1]; first compound 0.3162 µM
  relative viability: 0.753
[1]; first compound 1 µM
  relative viability: 0.529
[2]; first compound 0.01 µM
  relative viability: 0.523
[2]; first compound 0.03162 µM
  relative viability: 0.184
[2]; first compound 0.1 µM
  relative viability: 0.396
[2]; first compound 0.3162 µM
  relative viability: 0.289
[2]; first compound 1 µM
  relative viability: 0.138
[4]; first compound 0.03162 µM
  relative viability: 0.158
[4]; first compound 0.1 µM
  relative viability: 0.177
[4]; first compound 0.3162 µM
  relative viability: 0.187
[4]; first compound 1 µM
  relative viability: 0.155

## HCC-15
[3]; first compound 0.03162 µM
  relative viability: 0.561
[3]; first compound 0.1 µM
  relative viability: 0.64
[3]; first compound 0.3162 µM
  relative viability: 0.59
[3]; first compound 1 µM
  relative viability: 0.77
[1]; first compound 0.03162 µM
  relative viability: 0.679
[1]; first compound 0.1 µM
  relative viability: 0.71
[1]; first compound 0.3162 µM
  relative viability: 0.736
[1]; first compound 1 µM
  relative viability: 0.73
[2]; first compound 0.01 µM
  relative viability: 0.881
[2]; first compound 0.03162 µM
  relative viability: 0.857
[2]; first compound 0.1 µM
  relative viability: 0.795
[2]; first compound 0.3162 µM
  relative viability: 0.662
[2]; first compound 1 µM
  relative viability: 0.463
[4]; first compound 0.03162 µM
  relative viability: 0.375
[4]; first compound 0.1 µM
  relative viability: 0.4
[4]; first compound 0.3162 µM
  relative viability: 0.389
[4]; first compound 1 µM
  relative viability: 0.253

## IA-LM
[1]; first compound 0.03162 µM
  relative viability: 0.643
[1]; first compound 0.1 µM
  relative viability: 0.806
[1]; first compound 0.3162 µM
  relative viability: 0.794
[1]; first compound 1 µM
  relative viability: 0.665
[2]; first compound 0.01 µM
  relative viability: 0.31
[2]; first compound 0.03162 µM
  relative viability: 0.383
[2]; first compound 0.1 µM
  relative viability: 0.41
[2]; first compound 0.3162 µM
  relative viability: 0.263
[2]; first compound 1 µM
  relative viability: 0.131

## NCI-H1755
[3]; first compound 0.03162 µM
  relative viability: 0.705
[3]; first compound 0.1 µM
  relative viability: 0.616
[3]; first compound 0.3162 µM
  relative viability: 0.73
[3]; first compound 1 µM
  relative viability: 0.711
[1]; first compound 0.03162 µM
  relative viability: 0.937
[1]; first compound 0.1 µM
  relative viability: 0.953
[1]; first compound 0.3162 µM
  relative viability: 1.05
[1]; first compound 1 µM
  relative viability: 0.998
[2]; first compound 0.01 µM
  relative viability: 0.976
[2]; first compound 0.03162 µM
  relative viability: 1.05
[2]; first compound 0.1 µM
  relative viability: 1.02
[2]; first compound 0.3162 µM
  relative viability: 0.885
[2]; first compound 1 µM
  relative viability: 0.392
[4]; first compound 0.03162 µM
  relative viability: 0.516
[4]; first compound 0.1 µM
  relative viability: 0.562
[4]; first compound 0.3162 µM
  relative viability: 0.555
[4]; first compound 1 µM
  relative viability: 0.53

## EMC-BAC-2
[3]; first compound 0.03162 µM
  relative viability: 0.958
[3]; first compound 0.1 µM
  relative viability: 0.934
[3]; first compound 1 µM
  relative viability: 0.96
[1]; first compound 0.03162 µM
  relative viability: 1.15
[1]; first compound 0.1 µM
  relative viability: 1.01
[1]; first compound 0.3162 µM
  relative viability: 1.17
[1]; first compound 1 µM
  relative viability: 1.14
[2]; first compound 0.01 µM
  relative viability: 0.824
[2]; first compound 0.03162 µM
  relative viability: 0.762
[2]; first compound 0.1 µM
  relative viability: 0.763
[2]; first compound 0.3162 µM
  relative viability: 0.607
[2]; first compound 1 µM
  relative viability: 0.305
[4]; first compound 0.03162 µM
  relative viability: 0.303
[4]; first compound 0.1 µM
  relative viability: 0.28
[4]; first compound 0.3162 µM
  relative viability: 0.212
[4]; first compound 1 µM
  relative viability: 0.237

## NCI-H838
[3]; first compound 0.03162 µM
  relative viability: 0.467
[3]; first compound 0.1 µM
  relative viability: 0.485
[3]; first compound 0.3162 µM
  relative viability: 0.54
[3]; first compound 1 µM
  relative viability: 0.598
[1]; first compound 0.03162 µM
  relative viability: 1.07
[1]; first compound 0.1 µM
  relative viability: 1.21
[1]; first compound 1 µM
  relative viability: 1.27
[2]; first compound 0.01 µM
  relative viability: 0.819
[2]; first compound 0.03162 µM
  relative viability: 0.584
[2]; first compound 0.1 µM
  relative viability: 0.456
[2]; first compound 0.3162 µM
  relative viability: 0.305
[2]; first compound 1 µM
  relative viability: 0.254
[4]; first compound 0.03162 µM
  relative viability: 0.233
[4]; first compound 0.1 µM
  relative viability: 0.293
[4]; first compound 1 µM
  relative viability: 0.285

## NCI-H1650
[3]; first compound 0.03162 µM
  relative viability: 0.348
[3]; first compound 0.1 µM
  relative viability: 0.499
[3]; first compound 0.3162 µM
  relative viability: 0.413
[3]; first compound 1 µM
  relative viability: 0.461
[1]; first compound 0.03162 µM
  relative viability: 1.12
[1]; first compound 0.3162 µM
  relative viability: 1.18
[1]; first compound 1 µM
  relative viability: 1.15
[4]; first compound 0.1 µM
  relative viability: 0.277
[4]; first compound 1 µM
  relative viability: 0.272

## NCI-H1975
[3]; first compound 0.03162 µM
  relative viability: 0.419
[3]; first compound 0.1 µM
  relative viability: 0.418
[3]; first compound 0.3162 µM
  relative viability: 0.345
[3]; first compound 1 µM
  relative viability: 0.32
[1]; first compound 0.03162 µM
  relative viability: 0.94
[1]; first compound 0.1 µM
  relative viability: 1.11
[1]; first compound 0.3162 µM
  relative viability: 0.952
[1]; first compound 1 µM
  relative viability: 1.03
[2]; first compound 0.01 µM
  relative viability: 1.09
[2]; first compound 0.03162 µM
  relative viability: 1.03
[2]; first compound 0.1 µM
  relative viability: 0.822
[2]; first compound 0.3162 µM
  relative viability: 0.706
[2]; first compound 1 µM
  relative viability: 0.339
[4]; first compound 0.03162 µM
  relative viability: 0.688
[4]; first compound 0.1 µM
  relative viability: 0.635
[4]; first compound 0.3162 µM
  relative viability: 0.45
[4]; first compound 1 µM
  relative viability: 0.238

## NCI-H522
[3]; first compound 0.03162 µM
  relative viability: 0.668
[3]; first compound 0.1 µM
  relative viability: 0.607
[3]; first compound 0.3162 µM
  relative viability: 0.624
[3]; first compound 1 µM
  relative viability: 0.692
[4]; first compound 0.03162 µM
  relative viability: 0.609
[4]; first compound 0.1 µM
  relative viability: 0.471
[4]; first compound 0.3162 µM
  relative viability: 0.592
[4]; first compound 1 µM
  relative viability: 0.631

## NCI-H1437
[3]; first compound 0.03162 µM
  relative viability: 0.523
[3]; first compound 0.1 µM
  relative viability: 0.565
[3]; first compound 0.3162 µM
  relative viability: 0.531
[3]; first compound 1 µM
  relative viability: 0.579
[1]; first compound 0.03162 µM
  relative viability: 1.01
[1]; first compound 0.1 µM
  relative viability: 1.06
[1]; first compound 0.3162 µM
  relative viability: 1.05
[1]; first compound 1 µM
  relative viability: 1.09
[2]; first compound 0.01 µM
  relative viability: 0.962
[2]; first compound 0.03162 µM
  relative viability: 0.6
[2]; first compound 0.1 µM
  relative viability: 0.702
[2]; first compound 0.3162 µM
  relative viability: 0.292
[2]; first compound 1 µM
  relative viability: 0.155
[4]; first compound 0.03162 µM
  relative viability: 0.404
[4]; first compound 0.1 µM
  relative viability: 0.381
[4]; first compound 0.3162 µM
  relative viability: 0.396
[4]; first compound 1 µM
  relative viability: 0.363
